From patent publication US20240140953A1, “INHIBITORS OF MENIN-MLL INTERACTION” (BIOMEA FUSION, INC., priority 2018, published 2024) come the findings set out here.

Experiment [1] deals with MOLM-13 (MLL-AF9). Kind of experiment: Proliferation study, CellTiterGlo, 4 days (Example 102), MOLM-13. The settings on record: MOLM-13, 4 days treatment; for IC50: Homo sapiens, 96 h, CellTiterGlo; for MOLM-13 (MLL-AF9) % max: maximal inhibition. Format: cell-based, human. From the text:
The objective of the study was to evaluate the ability of representative compounds of the present invention, inhibitors of Menin/MLL interaction to inhibit cell proliferation. The proliferation inhibitory effect was investigated in two human MLL-leukemia cells selected on the bases of MLL fusion protein and listed in Table 102. HL-60 cell line was used as negative control.
ATP is present in all metabolically active cells and is considered as a marker for cell viability and proliferation. The metabolic cell activity was determined using the CellTiter-Glo kit from Promega, an ATP monitoring system based on the production of luminescence by the reaction of ATP with added UltraGlo® recombinant luciferase (Kawano et al., 2016), according to the supplier's experimental recommendations.
The described assay evaluates the ability of 4 representative compounds to inhibit the cell proliferation in the human MLL-leukemia cells plus a negative control cell line.
The assay provides potency values (IC50) for each test compound at a single time point Day 4 (T4).
Seven concentrations of the compounds (2.00E-05-6.67E-06-2.22E-06-7.41E-07-2.47E-07-8.23E-08-2.74E-08M), were assessed in duplicate in an individual test occasion in all the cell lines. MI-503 (Borkin et al., 2015) was used as reference compound and was tested at the same concentrations as the NCEs. 100% of proliferation is represented by the untreated cells (0.2% DMSO). The cell growth was monitored up to 4 days in culture.
MV4-11, MOLM-13 and HL-60 cells (see Table 2) were maintained in RPMI-1640 medium (Invitrogen, Cat. n. 618700, Batch n. 1965930) supplemented with 10% of Heat Inactivated FBS (Invitrogen, Cat n. 10500, Batch n. 08Q8078K) and 1% Pen-Strep (Invitrogen, Cat. N. 15140, Batch n. 1910859) and cultured at 37° C. in a humidified incubator with 5% CO2. All the cell lines grow in suspension and the cell density was maintained in a range of 2×10^5-1×10^6 viable cells/ml. Cells were pelleted at 130 g×5 min and conditioned medium was used to dilute the cell suspension.
Test items were dissolved in glass vials at 10 mM in DMSO with purity ≥99.9% (Sigma, D8418, batch n. SHBH4245V) and stored at −20° C. in 1.5 mL Eppendorf tubes.
Serial dilutions 1 to 3 in DMSO 100% were prepared starting from a 10 mM stock solutions to generate 7 points concentration response curve (CRC).
For each plate to test, one 0.4 μL copy plate and four 0.3 μL copy plates were then stamped into 96-well plates not treated for cell adhesion (Sarstedt—cat.no. 82.1581.001) by acoustic liquid Handling, Echo, at a concentration which was 500 fold the final assay concentration. Stamped plates were stored at −20° C. The final concentrations for the reference compound, MI-503, and the test items were: 2.00E-05, 6.67E-06, 2.22E-06, 7.41E-07, 2.47E-07, 8.23E-08 and 2.74E-08 M.
Cells were plated in 96-well flat bottom microtiter plates at cell density of 15,000 cells/ml for HL-60, 1000 cells/ml for MOLM-13 and 10,000 cell/ml for MV4-11. Cells were treated with 0.2% DMSO (Sigma, D8418, batch n. SHBH4245V) or serial dilutions of compounds (0.027 μM-20 μM) in DMSO (0.2% final concentration). Cells were incubated in a 5% CO2 incubator at 37° C. for 4 days. A CellTiterGlo viability assay (Promega) was employed. Luminescence was read by using VictorV (Perkin Elmer) multilabel plate reader using the standard protocol for luminescence in 96 well plate. The experiment was performed in duplicate.
Data were expressed as % of inhibition compared to the 0.2% DMSO negative control, and was calculated as follows: […]
CRCs were analysed by GraphPad and IC50 values were calculated by non-linear regression using 4 parameter-logistic equation. IC50 (μM) values were reported in the final data table. The curve fittings were performed leaving free all the parameters. Any constrain were reported in the results table.
For orientation: Cellular ATP, detected with luciferase, serves as a proxy for viable cell number.

Experiment [2] relates to MOLM-13. As to the kind of experiment: Long term proliferation assay (Table 3A), MOLM-13. Type of experiment: cell-based. The settings on record: Homo sapiens.
Where [3] appears, read: read-out: MOLM-13 (MLL-AF9) IC50.
The mark [4] stands for this setting: read-out: MOLM-13 (MLL-AF9) pIC50 (converted).
[5] abbreviates: 96 h, MOLM-13, Day 4, read-out: MOLM-13 Day 4 IC50.

Molecules are shown by their SMILES. Read-outs that look alike come from different tables or passages of the source.

For the molecule `O=C(Nc1ccc(-c2cc3c(N4CCOCC4)ncnc3[nH]2)cc1)Nc1cc(-c2cccnc2)n[nH]1` [Compound 9, 1-{4-[4-(morpholin-4-yl)-7H-pyrrolo[2,3-d]pyrimidin-6-yl]phenyl}-3-[3-(pyridin-3-yl)-1H-pyrazol-5-yl]urea], the IC50 in experiment [1] (setting [3]) was 320 nM; in experiment [1] (setting [4]), 324 nM; in experiment [2] (setting [5]), 324 nM; in experiment [2] (264 h, MOLM-13, Day 11, read-out: MOLM-13 Day 11 IC50), 155 nM. Also, in experiment [1], the “MOLM-13 (MLL-AF9) % max” value was 94%.
Regarding `Cn1nc(-c2cccnc2)cc1CC(=O)Nc1ccc(-c2cc3c(N4CCOCC4)ncnc3[nH]2)cc1` [Compound 11, 2-[1-methyl-3-(pyridin-3-yl)-1H-pyrazol-5-yl]-N-{4-[4-(morpholin-4-yl)-7H-pyrrolo[2,3-d]pyrimidin-6-yl]phenyl}acetamide], the IC50 is 260 nM in experiment [1] (setting [3]), 257 nM in experiment [1] (setting [4]) and 260 nM in experiment [2] (setting [5]). The “MOLM-13 (MLL-AF9) % max” value in experiment [1] was determined as 95%.
For the molecule `O=C(Cc1cc(-c2cccnc2)n[nH]1)Nc1ccc(-c2nc3c(N4CCOCC4)ncnc3[nH]2)cc1` [Compound 12, N-{4-[6-(morpholin-4-yl)-9H-purin-8-yl]phenyl}-2-[3-(pyridin-3-yl)-1H-pyrazol-5-yl]acetamide], the IC50 in experiment [1] (setting [3]) is roughly 710 nM; in experiment [1] (setting [4]) it was roughly 708 nM; in experiment [2] (setting [5]), 710 nM. Moreover, the “inhibition of cell viability (in words)” value in experiment [1] (up to 20 μM) is recorded as “slightly active”.
